From ChEMBL document CHEMBL5625164, “Design, synthesis, and evaluation of new anti-inflammatory natural products amide derivatives endowed with anti-blood cancer activity towards development of potential multifunctional agents against hematological cancers” (Eur J Med Chem, 2023)

Columns and labels:
[1] = Cytotoxicity against mouse RAW264.7 cells assessed as macrophage viability at 10 uM relative to control; type: toxicity, cell-based; settings: read-out: Activity
BV-2 = assay: Anti-inflammatory activity against mouse BV-2 cells assessed as inhibition of LPS-induced NO production at 10 uM pretreated for 2 hrs followed stimulated with LPS for 22 hrs by Griess reaction assay relative to control; type: functional; settings: time 24 hrs

Molecule `COc1ccc(C(=O)Nc2cccc(C3CC(=O)c4c(cc(OC)c(OC)c4OC)O3)c2)cc1` (racemic) has a viability at 10 µM [1] of 102% and an inhibition at 10 µM (BV-2) of 15.2%.
Work on `COc1cc2c(c(OC)c1OC)C(=O)CC(c1cccc(C(=O)Nc3cccnc3)c1)O2` (racemic) yielded a viability at 10 µM [1] of 109% and an inhibition at 10 µM (BV-2) of 10.5%.
`COc1ccc(NC(=O)c2cccc(C3CC(=O)c4c(cc(OC)c(OC)c4OC)O3)c2)cc1` (racemic) gave a viability at 10 µM [1] of 111% and an inhibition at 10 µM (BV-2) of 28.6%.
Molecule `COc1cc2c(c(OC)c1OC)C(=O)CC(c1cccc(C(=O)Nc3cccc(F)c3)c1)O2` (racemic) has a viability at 10 µM [1] of 110% and an inhibition at 10 µM (BV-2) of 25.8%.
`COc1ccccc1C(=O)Nc1cccc(C2CC(=O)c3c(cc(OC)c(OC)c3OC)O2)c1` (racemic) gave a viability at 10 µM [1] of 103% and an inhibition at 10 µM (BV-2) of 14.3%.
In the case of `COc1cccc(CNC(=O)c2cccc(C3CC(=O)c4c(cc(OC)c(OC)c4OC)O3)c2)c1` (racemic), the viability at 10 µM [1] is reported as 107% and the inhibition at 10 µM (BV-2) is reported as 24.7%.
In the case of `COc1ccccc1NC(=O)c1cccc(C2CC(=O)c3c(cc(OC)c(OC)c3OC)O2)c1` (racemic), the viability at 10 µM [1] is reported as 103% and the inhibition at 10 µM (BV-2) is reported as 19.7%.
Molecule `COc1cc2c(c(OC)c1OC)C(=O)CC(c1cccc(NC(=O)c3ccc(C#N)cc3)c1)O2` (racemic) has a viability at 10 µM [1] of 115% and an inhibition at 10 µM (BV-2) of 26.8%.
Molecule `COc1cc2c(c(OC)c1OC)C(=O)CC(c1cccc(C(=O)Nc3ccc(C#N)cc3)c1)O2` (racemic) has a viability at 10 µM [1] of 122% and an inhibition at 10 µM (BV-2) of 21.2%.
For `COc1cc2c(c(OC)c1OC)C(=O)CC(c1cccc(C(=O)Nc3cccc(Cl)c3)c1)O2` (racemic), the viability at 10 µM [1] was 93.9% and the inhibition at 10 µM (BV-2) was 24.6%.
Molecule `COc1cccc(C(=O)Nc2cccc(C3CC(=O)c4c(cc(OC)c(OC)c4OC)O3)c2)c1` (racemic) has a viability at 10 µM [1] of 98% and an inhibition at 10 µM (BV-2) of 32.1%.
For `COc1cc2c(c(OC)c1OC)C(=O)CC(c1cccc(NC(=O)c3ccccc3)c1)O2` (racemic), the viability at 10 µM [1] was 97% and the inhibition at 10 µM (BV-2) was 23.5%.
For `COc1cc2c(c(OC)c1OC)C(=O)CC(c1cccc(NC(=O)c3cccc(Br)c3)c1)O2` (racemic), the viability at 10 µM [1] was 105% and the inhibition at 10 µM (BV-2) was 14.2%.
In the case of `COc1cc2c(c(OC)c1OC)C(=O)CC(c1cccc(C(=O)Nc3ccncc3)c1)O2` (racemic), the viability at 10 µM [1] is reported as 91.3% and the inhibition at 10 µM (BV-2) is reported as 16%.
Molecule `COc1cc2c(c(OC)c1OC)C(=O)CC(c1cccc(C(=O)Nc3ccccc3Br)c1)O2` (racemic) has a viability at 10 µM [1] of 101% and an inhibition at 10 µM (BV-2) of 9.4%.
`COc1cc2c(c(OC)c1OC)C(=O)CC(c1cccc(NC(=O)c3cccc(Cl)c3)c1)O2` (racemic) showed a viability at 10 µM [1] of 100% and an inhibition at 10 µM (BV-2) of 32.3%.
For `COc1cccc(NC(=O)c2cccc(C3CC(=O)c4c(cc(OC)c(OC)c4OC)O3)c2)c1` (racemic), the viability at 10 µM [1] was 112% and the inhibition at 10 µM (BV-2) was 21.9%.
Work on `COc1cc2c(c(OC)c1OC)C(=O)CC(c1cccc(C(=O)Nc3ccccc3)c1)O2` (racemic) yielded a viability at 10 µM [1] of 110% and an inhibition at 10 µM (BV-2) of 24.2%.
